Like-named read-outs stand apart in the source and are kept apart here.
What was measured:
plasma protein = experiment: Plasma protein binding in vitro; assay type: in vitro ADME
[1] = Hepatic impairment study: adverse events; assay type: in vivo, human
Description: Participants were queried regarding any AEs or SAEs at the time of each vital sign assessment, as well as at each visit through to the follow-up visit.
Criteria for potential Hy's Law cases were as follows: AST or ALT≥3×ULN and Total Bilirubin≥2×ULN and Alkaline phosphatase<2×ULN.

adults with migraine = experiment: Consistency of treatment, ACHIEVE trials and long-term extension trial; assay type: in vivo, human
Description: Therapeutic gain (TG) was calculated for the ACHIEVE trial and separately for the first 3 attacks of moderate/severe pain intensity treated in the long term extension trial, using placebo data from ACHIEVE. The TG ratio (TGR) was the TG from the LTE divided by the TG in the ACHIEVE trial multiplied by 100. Following consultation with regulatory agencies, a consistency threshold for the TGR of 50% or greater was used for this analysis.

[2] = Phase 1 food effect study, 100 mg tablet fed vs fasted; assay type: in vivo, human; details: for AUC(0-inf) / AUC(0-t) / Cmax / Tmax / Vd/F / half-life: both sexes, human, plasma, oral, 100 mg; for Vd/F: read-out: Vz/F, arithmetic mean (CV %); for half-life: read-out: t1/2, mean (CV %) (converted)
Description: The treatments were administered in 1 of 2 sequences in periods 1 and 2 with a washout period of at least 7 days between each treatment.
Eighteen healthy participants with a mean age of 28.4 years (range: 20 to 39 years) were enrolled. The majority of participants were male (14 of 18, 77.8%). […] Mean (SD) weight was 75.99 ([…]) kg and mean (SD) BMI was 25.03 (3.290) kg/m2. Participants were randomly assigned one of two treatments in 1 of 2 sequences in Periods 1 and 2, with a washout period of at least 7 days between each study treatment.
For fed participants, the standardized high-fat (approximately 50% of total caloric content of the meal) and high-calorie (total of approximately 800 to 1000 calories) breakfast derived approximately 150 calories from protein, 250 calories from carbohydrates, and 500 to 600 calories from fat. An example of a high-fat breakfast meal would be 2 eggs fried in butter, 2 strips of bacon, 2 slices of toast with butter, 4 ounces of hash brown potatoes, and 8 ounces of whole milk. […] Participants who were randomly assigned to receive ubrogepant under fed conditions were required to consume the high-fat, high-calorie breakfast in full. For all participants, no food was allowed for 4 hours following study treatment administration. Water was allowed as desired except for 1 hour before and 1 hour after study treatment administration.

BCRP = target: T1, BCRP (Homo sapiens, UniProt Q9UNQ0); experiment: BCRP transporter substrate in vitro; assay type: in vitro ADME
T1 sequence (Q9UNQ0 1-655): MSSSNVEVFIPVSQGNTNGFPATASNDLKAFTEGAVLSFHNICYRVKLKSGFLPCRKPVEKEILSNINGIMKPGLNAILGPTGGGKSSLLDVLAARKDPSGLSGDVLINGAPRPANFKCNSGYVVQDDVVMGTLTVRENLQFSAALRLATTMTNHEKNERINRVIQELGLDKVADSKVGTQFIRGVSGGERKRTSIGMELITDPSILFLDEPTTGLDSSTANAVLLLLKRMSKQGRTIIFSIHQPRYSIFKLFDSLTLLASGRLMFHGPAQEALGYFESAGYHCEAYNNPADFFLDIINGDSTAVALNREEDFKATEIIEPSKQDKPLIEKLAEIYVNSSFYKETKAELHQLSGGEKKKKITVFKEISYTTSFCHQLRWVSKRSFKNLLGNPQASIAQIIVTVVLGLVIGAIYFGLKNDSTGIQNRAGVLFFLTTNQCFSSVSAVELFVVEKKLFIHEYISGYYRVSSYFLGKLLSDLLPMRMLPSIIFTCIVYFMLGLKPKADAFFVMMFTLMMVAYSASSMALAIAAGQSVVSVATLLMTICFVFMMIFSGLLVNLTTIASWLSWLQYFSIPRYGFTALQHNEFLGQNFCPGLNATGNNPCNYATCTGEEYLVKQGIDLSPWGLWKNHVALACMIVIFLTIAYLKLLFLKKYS

[3] = 100 mg single oral dose, all 28 participants
[4] = 100 mg single oral dose, mild hepatic impairment
[5] = 100 mg single oral dose, moderate hepatic impairment
[6] = 100 mg single oral dose, normal hepatic function
[7] = 100 mg single oral dose, severe hepatic impairment

C[C@@H]1[C@H](c2ccccc2)C[C@H](NC(=O)c2cnc3c(c2)C[C@@]2(C3)C(=O)Nc3ncccc32)C(=O)N1CC(F)(F)F [ubrogepant, (3′S)-N-((3S,5S,6R)-6-methyl-2-oxo-5-phenyl-1-(2,2,2-trifluoroethyl)piperidin-3-yl)-2′-oxo-1′,2′,5,7-etrahydrospiro[cyclopenta[b]pyridine-6,3′-pyrrolo[2,3-b]pyridine]-3-carboxamide]
fraction unbound (plasma protein): 0.13 | changes in laboratory parameters, vital signs, or ECG measurements ([1]; 100 mg single oral dose): no clinically relevant changes in laboratory parameters, vital signs, or ECG measurements | participants with TEAEs, overall [1, 3]: 17.9% | participants with headache, overall [1, 3]: 2 participants | AE leading to study discontinuation [1, 4]: 0 n (%) | Any SAE [1, 4]: 0 n (%) | Any TEAE [1, 4]: 3 (37.5) n (%) | Any treatment-related TEAE [1, 4]: 2 (25.0) n (%) | Deaths [1, 4]: 0 n (%) | Diarrhoea [1, 4]: 1 (12.5) n (%) | Dizziness [1, 4]: 0 n (%) | Dyspepsia [1, 4]: 1 (12.5) n (%) | Gastrointestinal Disorders [1, 4]: 2 (25.0) n (%) | Headache [1, 4]: 1 (12.5) n (%) | Nervous System Disorders [1, 4]: 1 (12.5) n (%) | AE leading to study discontinuation [1, 5]: 0 n (%) | Any SAE [1, 5]: 0 n (%) | Any TEAE [1, 5]: 2 (25.0) n (%) | Any treatment-related TEAE [1, 5]: 2 (25.0) n (%) | Deaths [1, 5]: 0 n (%) | Diarrhoea [1, 5]: 0 n (%) | Dizziness [1, 5]: 1 (12.5) n (%) | Dyspepsia [1, 5]: 0 n (%) | Gastrointestinal Disorders [1, 5]: 0 n (%) | Headache [1, 5]: 1 (12.5) n (%) | Nervous System Disorders [1, 5]: 2 (25.0) n (%) | AE leading to study discontinuation [1, 6]: 0 n (%) | Any SAE [1, 6]: 0 n (%) | Any TEAE [1, 6]: 0 n (%) | Any treatment-related TEAE [1, 6]: 0 n (%) | Deaths [1, 6]: 0 n (%) | Diarrhoea [1, 6]: 0 n (%) | Dizziness [1, 6]: 0 n (%) | Dyspepsia [1, 6]: 0 n (%) | Gastrointestinal Disorders [1, 6]: 0 n (%) | Headache [1, 6]: 0 n (%) | Nervous System Disorders [1, 6]: 0 n (%) | AE leading to study discontinuation [1, 7]: 0 n (%) | Any SAE [1, 7]: 0 n (%) | Any TEAE [1, 7]: 0 n (%) | Any treatment-related TEAE [1, 7]: 0 n (%) | Deaths [1, 7]: 0 n (%) | Diarrhoea [1, 7]: 0 n (%) | Dizziness [1, 7]: 0 n (%) | Dyspepsia [1, 7]: 0 n (%) | Gastrointestinal Disorders [1, 7]: 0 n (%) | Headache [1, 7]: 0 n (%) | Nervous System Disorders [1, 7]: 0 n (%) | tolerability ([1]; healthy participants and participants with mild to severe hepatic impairment): well-tolerated | rate of 2-hour pain relief (adults with migraine; ACHIEVE ubrogepant 100 mg treated attacks): 61.4% | rate of 2 hour pain freedom (adults with migraine; ACHIEVE ubrogepant 100 mg-treated attacks): 21.2% | rate of 2 hour pain freedom (adults with migraine; LTE trial, 100 mg, mean across first 3 attacks): 21.6% | rate of 2-hour pain relief (adults with migraine; LTE trial, 100 mg, mean across first three attacks): 68.0% | effect of a high fat meal on extent of exposure (AUC0-t and AUC0-inf) ([2]; 1 × 100 mg tablet): did not affect the extent of exposure | CL/F, arithmetic mean (CV %) ([2]; 1 × 100 mg tablet, fasted): 77.29 (29.9) L/h | Tmax, median (minimum − maximum) ([2]; 1 × 100 mg tablet, fasted): 1.00 (1.00-3.00) h | t1/2, mean (CV %) ([2]; 1 × 100 mg tablet, fasted): 4.99 (23.0) h | CL/F, arithmetic mean (CV %) ([2]; 1 × 100 mg tablet, fed): 76.55 (24.1) L/h | Tmax, median (minimum − maximum) ([2]; 1 × 100 mg tablet, fed): 3.00 (0.50-4.00) h | t1/2, mean (CV %) ([2]; 1 × 100 mg tablet, fed): 4.64 (11.1) h | maximum exposure (Cmax) lower under fed versus fasted conditions ([2]; 1 × 100 mg tablet, high fat meal): approximately 22% | AUC(0-inf) ([2]; 1 × 100 mg tablet, fasted, read-out: AUC0-inf, geometric mean (geometric CV %)): 1360 ng·h/mL | AUC(0-t) ([2]; 1 × 100 mg tablet, fasted, read-out: AUC0-t, geometric mean (geometric CV %)): 1330 ng·h/mL | Cmax ([2]; 1 × 100 mg tablet, fasted, read-out: Cmax, geometric mean (geometric CV %)): 334 ng/mL | AUC(0-inf) ([2]; 1 × 100 mg tablet, fasted, read-out: GLSM AUC0-inf): 1370 ng·h/mL | AUC(0-t) ([2]; 1 × 100 mg tablet, fasted, read-out: GLSM AUC0-t): 1340 ng·h/mL | Cmax ([2]; 1 × 100 mg tablet, fasted, read-out: GLSM Cmax): 336 ng/mL | Tmax ([2]; 1 × 100 mg tablet, fasted, read-out: Tmax, median (minimum − maximum)): 1 h | Vd/F ([2]; 1 × 100 mg tablet, fasted): 536 L | half-life ([2]; 1 × 100 mg tablet, fasted): ~5 h | AUC(0-inf) ([2]; 1 × 100 mg tablet, fed, read-out: AUC0-inf, geometric mean (geometric CV %)): 1340 ng·h/mL | AUC(0-t) ([2]; 1 × 100 mg tablet, fed, read-out: AUC0-t, geometric mean (geometric CV %)): 1320 ng·h/mL | Cmax ([2]; 1 × 100 mg tablet, fed, read-out: Cmax, geometric mean (geometric CV %)): 262 ng/mL | AUC(0-inf) ([2]; 1 × 100 mg tablet, fed, read-out: GLSM AUC0-inf): 1350 ng·h/mL | AUC(0-t) ([2]; 1 × 100 mg tablet, fed, read-out: GLSM AUC0-t): 1330 ng·h/mL | Cmax ([2]; 1 × 100 mg tablet, fed, read-out: GLSM Cmax): 263 ng/mL | Tmax ([2]; 1 × 100 mg tablet, fed, read-out: Tmax, median (minimum − maximum)): 3 h | Vd/F ([2]; 1 × 100 mg tablet, fed): 507 L | half-life ([2]; 1 × 100 mg tablet, fed): ~5 h | Tmax ([2]; 1 × 100 mg tablet, read-out: Tmax median difference (fed−fasted)): 2 h | GMR AUC0-inf ([2]; fed vs fasted): 98.89% | GMR AUC0-t ([2]; fed vs fasted): 98.88% | GMR Cmax ([2]; fed vs fasted): 78.39% | substrate of BCRP transporter (BCRP): substrate
